The target of one series is IMP-1 (Serratia marcescens, UniProt P52699). Put plainly: biochemical. The note with it: CCF2-FA substrate, 2 hours at 25° C; read-out: IMP-1 IC50. In kind it is biochemical. The method in brief:
(§1)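 Inhibitor was mixed with the metallo-β-lactamase and CCF2-FA. After 2 hours at 25° C, fluorescence of the coumarin–fluorescein cephalosporin substrate was read. IC50 was calculated with a 4-parameter fit.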

In another series the target is NDM-1 (Klebsiella pneumoniae, UniProt C7C422). Put plainly: biochemical. In kind it is biochemical. The following applies: CCF2-FA substrate, 2 hours at 25° C; read-out: NDM-1 IC50. Summed up:
as §1

The target of the next series is VIM-1 (Pseudomonas aeruginosa (strain ATCC 15692 / DSM 22644 / CIP 104116 / JCM 14847 / LMG 12228 / 1C / PRS 101 / PAO1), UniProt A0A0F7KYQ8). Put plainly: biochemical. The note with it: CCF2-FA substrate, 2 hours at 25° C. The method in brief:
as §1

Series [1] concerns Escherichia coli expressing NDM-1 (CLB30005, CLB30016). In kind it is cell-based. The note with it: with imipenem 1 μg/ml, 95% inhibition of bacterial growth; for Escherichia coli MITC95: NDM-1 (CLB30016). Summed up:
(§2)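 Colonies from overnight 35 °C blood-agar cultures were suspended in saline, diluted 1:100 into 1.1× CAMHB and exposed to test compound with or without imipenem at 1 μg/ml. After 22–24 h at 35 °C, absorbance was read to find the concentration restoring imipenem susceptibility.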

In series [2] the test system is Klebsiella pneumoniae expressing VIM-1 (IHMA599644). It counts as cell-based. The following applies: with imipenem 1 μg/ml, 95% inhibition of bacterial growth; for Klebsiella pneumoniae MITC95: VIM-1 (IHMA599644). The method in brief: as §2
Series [3] relates to Serratia marcescens expressing IMP-1 (CL5741). In kind it is cell-based. The following applies: with imipenem 1 μg/ml, 95% inhibition of bacterial growth; for Serratia marcescens MITC95: IMP-1 (CL5741). The method in brief:
as §2

Series [4] relates to P. aeruginosa expressing IMP-1, efflux+ (MB9798). In kind it is cell-based, Pseudomonas aeruginosa. The following applies: for P. aeruginosa expressing IMP-1, efflux+ (MB9798) MITC95: imipenem at 2 μg/mL, in the presence of a class A, C, D serine β-lactamase inhibitor closely related to relebactam; for Efflux ratio: ratio MITC95 PA_9798/MITC95 PA_9799. An excerpt: (§3) The strain background is Pseudomonas aeruginosa PAO1.

The test system of series [5] is P. aeruginosa expressing IMP-1, efflux− (MB9799). Put plainly: Efflux: concentration of MBL inhibitor which restores susceptibility to imipenem. In kind it is cell-based, Pseudomonas aeruginosa. The following applies: imipenem at 2 μg/mL, in the presence of a class A, C, D serine β-lactamase inhibitor closely related to relebactam.
From the text: as §3

The source of these data is US10227331B2 (priority 2015, dated 2019).

As usually defined, the pIC50 is the IC50 on a negative log10 scale, so that one unit is a factor of ten.

SMILES strings stand for the structures. pIC50: −log10 of the molar value.

Chain of IMP-1 (P52699 whole entry, looked up, species assumed): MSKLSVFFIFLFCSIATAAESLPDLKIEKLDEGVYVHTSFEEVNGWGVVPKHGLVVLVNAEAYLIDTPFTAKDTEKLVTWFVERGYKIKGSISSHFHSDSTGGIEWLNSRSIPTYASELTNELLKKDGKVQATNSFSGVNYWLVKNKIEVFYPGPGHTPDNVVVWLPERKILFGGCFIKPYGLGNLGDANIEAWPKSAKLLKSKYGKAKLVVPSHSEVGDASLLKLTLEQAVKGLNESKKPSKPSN
Chain of NDM-1 (C7C422 whole entry, looked up, species assumed): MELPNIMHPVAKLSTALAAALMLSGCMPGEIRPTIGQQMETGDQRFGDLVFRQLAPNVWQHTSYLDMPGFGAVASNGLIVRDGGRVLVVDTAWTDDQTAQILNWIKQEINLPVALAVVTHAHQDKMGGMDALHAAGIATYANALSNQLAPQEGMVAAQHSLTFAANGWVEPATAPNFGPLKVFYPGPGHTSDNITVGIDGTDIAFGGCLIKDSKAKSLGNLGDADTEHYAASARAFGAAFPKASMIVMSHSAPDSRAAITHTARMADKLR

Regarding `Nc1nc2c(-c3ccc(S(=O)(=O)C4CNC4)c(S(N)(=O)=O)c3-c3nn[nH]n3)cccc2s1` [Example 317, 3-(2-aminobenzo[d]thiazol-4-yl)-6-(azetidin-3-ylsulfonyl)-2-(2H-tetrazol-5-yl)benzenesulfonamide], the pIC50 is 9.64 on IMP-1, 10.51 at NDM-1 and 9.72 at VIM-1. Moreover, the “Escherichia coli MITC95” value in series [1] was 1.172 µM. Also, the “Klebsiella pneumoniae MITC95” value in series [2] was 1.563 µM. Further, the “Serratia marcescens MITC95” value in series [3] was 0.7813 µM. In addition, the “P. aeruginosa expressing IMP-1, efflux+ (MB9798) MITC95” value in series [4] came to 0.7813 µM. Further, in series [4], the Efflux ratio is recorded as 1.00. Also, the “P. aeruginosa expressing IMP-1, efflux− (MB9799) MITC95” value in series [5] worked out at 0.7813 µM.
With `Nc1nc2c(-c3ccc(S(=O)(=O)c4ccccn4)c(S(N)(=O)=O)c3-c3nnn[nH]3)cccc2s1` [Example 233, 3-(2-aminobenzo[d]thiazol-4-yl)-6-(pyridin-2-ylsulfonyl)-2-(1H-tetrazol-5-yl)benzenesulfonamide], the negative-log IC50 (pIC50) on IMP-1 was 9.69; at NDM-1, 10.49; against VIM-1, 9.95. Moreover, the “Escherichia coli expressing NDM-1 (CLB30016) MITC95” value in series [1] was found to be 3.125 µM. In addition, the “Klebsiella pneumoniae expressing VIM-1 (IHMA599644) MITC95” value in series [2] amounted to 12.5 µM. Further, the “Serratia marcescens expressing IMP-1 (CL5741) MITC95” value in series [3] came to 3.125 µM. The “P. aeruginosa expressing IMP-1, efflux+ (MB9798) MITC95” value in series [4] worked out at 12.5 µM. Besides, the Efflux ratio in series [4] is given as 8.00. Also, the “P. aeruginosa expressing IMP-1, efflux− (MB9799) MITC95” value in series [5] stood at 1.563 µM.
`COc1ccc(-c2ccc(S(=O)(=O)CCN)c(S(N)(=O)=O)c2-c2nnn[nH]2)c2[nH]c(C(F)(F)F)nc12.O=C(O)C(F)(F)F` [Example 164, 2-((4-(4-methoxy-2-(trifluoromethyl)-1H-benzo[d]imidazol-7-yl)-2-sulfamoyl-3-(1H-tetrazol-5-yl)phenyl)sulfonyl)ethanaminium 2,2,2-trifluoroacetate]: the pIC50 at IMP-1 was 9.63; on NDM-1, 9.83; against VIM-1 it was 9.84. In addition, in series [1], the “Escherichia coli expressing NDM-1 (CLB30016) MITC95” value came to 6.25 µM. For the same compound, the “Klebsiella pneumoniae expressing VIM-1 (IHMA599644) MITC95” value in series [2] turned out to be 6.25 µM. In series [3], the “Serratia marcescens expressing IMP-1 (CL5741) MITC95” value was found to be 3.125 µM. Besides, in series [4], the “P. aeruginosa expressing IMP-1, efflux+ (MB9798) MITC95” value worked out at 6.25 µM. Besides, the Efflux ratio in series [4] is 2.00. The “P. aeruginosa expressing IMP-1, efflux− (MB9799) MITC95” value in series [5] turned out to be 3.125 µM.
With `Nc1nc2c(-c3ccc(S(=O)(=O)C4CNC4)c(S(N)(=O)=O)c3-c3nn[nH]n3)ccc(C(=O)O)c2s1` [Example 38, 2-amino-4-(4-(azetidin-3-ylsulfonyl)-3-sulfamoyl-2-(2H-tetrazol-5-yl)phenyl)benzo[d]thiazole-7-carboxylic Acid], the pIC50 on IMP-1 is 9.90; on NDM-1, 10.54; against VIM-1 it was 9.47. Moreover, the “Escherichia coli expressing NDM-1 (CLB30016) MITC95” value in series [1] came to 31.25 µM. Also, in series [2], the “Klebsiella pneumoniae expressing VIM-1 (IHMA599644) MITC95” value is 25 µM. Further, in series [3], the “Serratia marcescens expressing IMP-1 (CL5741) MITC95” value stood at 12.5 µM. Also, the “P. aeruginosa expressing IMP-1, efflux+ (MB9798) MITC95” value in series [4] was 9.375 µM. For the same compound, the Efflux ratio in series [4] is 1.50. Moreover, in series [5], the “P. aeruginosa expressing IMP-1, efflux− (MB9799) MITC95” value was found to be 6.25 µM.
Regarding `Nc1nc2c(-c3ccc(S(=O)(=O)CCN4CCOCC4=O)c(S(N)(=O)=O)c3-c3nn[nH]n3)cccc2s1` [Example 259, 3-(2-aminobenzo[d]thiazol-4-yl)-6-((2-(3-oxomorpholino)ethyl)sulfonyl)-2-(2H-tetrazol-5-yl)benzenesulfonamide], the pIC50 on IMP-1 is 9.46; on NDM-1 it was 9.78; against VIM-1 it was 9.61. Besides, the “Escherichia coli MITC95” value in series [1] amounted to 25 µM. Further, the “Klebsiella pneumoniae MITC95” value in series [2] was found to be 25 µM. Further, the “Serratia marcescens MITC95” value in series [3] is 12.5 µM. In series [4], the “P. aeruginosa expressing IMP-1, efflux+ (MB9798) MITC95” value came out at 12.5 µM. In series [4], the Efflux ratio was 2.00. Also, in series [5], the “P. aeruginosa expressing IMP-1, efflux− (MB9799) MITC95” value was found to be 6.25 µM.
In the case of `CS(=O)(=O)c1ccc(-c2cccc3sc(N)nc23)c(-c2nn[nH]n2)c1S(N)(=O)=O` [Example 239, 3-(2-aminobenzo[d]thiazol-4-yl)-6-(methylsulfonyl)-2-(2H-tetrazol-5-yl) benzenesulfonamide], the pIC50 at IMP-1 was 10.04; on NDM-1 it was 9.89; on VIM-1, 9.97. Further, the “Escherichia coli expressing NDM-1 (CLB30016) MITC95” value in series [1] was 12.5 µM. Moreover, the “Klebsiella pneumoniae expressing VIM-1 (IHMA599644) MITC95” value in series [2] was found to be 6.25 µM. For the same compound, the “Serratia marcescens expressing IMP-1 (CL5741) MITC95” value in series [3] was 3.125 µM. Besides, the “P. aeruginosa expressing IMP-1, efflux+ (MB9798) MITC95” value in series [4] was 1.563 µM. Further, the Efflux ratio in series [4] was found to be 1.00. The “P. aeruginosa expressing IMP-1, efflux− (MB9799) MITC95” value in series [5] was determined as 1.563 µM.
With `N#Cc1cccc(-c2ccc(S(=O)(=O)C3CNC3)c(S(N)(=O)=O)c2-c2nn[nH]n2)c1N` [Example 196, 2′-amino-4-(azetidin-3-ylsulfonyl)-3′-cyano-2-(2H-tetrazol-5-yl)-[1,1′-biphenyl]-3-sulfonamide], the pIC50 on IMP-1 is 8.81; on NDM-1, 9.50; against VIM-1, 9.63. For the same compound, the “Escherichia coli expressing NDM-1 (CLB30016) MITC95” value in series [1] worked out at 0.7813 µM. Moreover, the “Klebsiella pneumoniae expressing VIM-1 (IHMA599644) MITC95” value in series [2] stood at 1.563 µM. Moreover, the “Serratia marcescens expressing IMP-1 (CL5741) MITC95” value in series [3] worked out at 1.563 µM. Further, the “P. aeruginosa expressing IMP-1, efflux+ (MB9798) MITC95” value in series [4] came out at 12.5 µM. Besides, the Efflux ratio in series [4] turned out to be 16.00. Moreover, the “P. aeruginosa expressing IMP-1, efflux− (MB9799) MITC95” value in series [5] is 0.7813 µM.
For `NS(=O)(=O)c1c(S(=O)(=O)C2CNC2)ccc(-c2ccc(NS(=O)(=O)C3CC3)cc2)c1-c1nn[nH]n1` [Example 244, 4-(Azetidin-3-ylsulfonyl)-4′-(cyclopropanesulfonamido)-2-(2H-tetrazol-5-yl)-[1,1′-biphenyl]-3-sulfonamide], the results for the pIC50 at IMP-1, at NDM-1 and at VIM-1 were 9.84, 9.81 and 9.95, respectively. For the same compound, in series [1], the “Escherichia coli expressing NDM-1 (CLB30016) MITC95” value stood at 3.125 µM. Further, in series [2], the “Klebsiella pneumoniae expressing VIM-1 (IHMA599644) MITC95” value came to 6.25 µM. Moreover, the “Serratia marcescens expressing IMP-1 (CL5741) MITC95” value in series [3] was 3.125 µM. For the same compound, the “P. aeruginosa expressing IMP-1, efflux+ (MB9798) MITC95” value in series [4] turned out to be 6.25 µM. For the same compound, the Efflux ratio in series [4] is recorded as 4.00. In addition, the “P. aeruginosa expressing IMP-1, efflux− (MB9799) MITC95” value in series [5] was determined as 1.563 µM.
For `NCCS(=O)(=O)c1ccc(-c2cccc3nc(N)[nH]c23)c(-c2nn[nH]n2)c1S(N)(=O)=O` [Example 70, 3-(2-amino-3H-benzo[d]imidazol-4-yl)-6-(2-aminoethylsulfonyl)-2-(2H-tetrazol-5-yl)benzenesulfonamide], the pIC50 was 9.10 on IMP-1, 9.60 at NDM-1 and 9.43 on VIM-1. Moreover, the “Escherichia coli expressing NDM-1 (CLB30016) MITC95” value in series [1] came to 0.25 µM. Besides, the “Klebsiella pneumoniae expressing VIM-1 (IHMA599644) MITC95” value in series [2] was 0.8906 µM. The “Serratia marcescens expressing IMP-1 (CL5741) MITC95” value in series [3] amounted to 0.6406 µM. The “P. aeruginosa expressing IMP-1, efflux+ (MB9798) MITC95” value in series [4] was determined as 0.4453 µM. Moreover, the Efflux ratio in series [4] is 1.00. For the same compound, the “P. aeruginosa expressing IMP-1, efflux− (MB9799) MITC95” value in series [5] worked out at 0.4453 µM.
